Holding throughout (format): cell-based
In assay [1] the target is T1, AHR (Homo sapiens, UniProt P35869).
T1 sequence (P35869 11-848): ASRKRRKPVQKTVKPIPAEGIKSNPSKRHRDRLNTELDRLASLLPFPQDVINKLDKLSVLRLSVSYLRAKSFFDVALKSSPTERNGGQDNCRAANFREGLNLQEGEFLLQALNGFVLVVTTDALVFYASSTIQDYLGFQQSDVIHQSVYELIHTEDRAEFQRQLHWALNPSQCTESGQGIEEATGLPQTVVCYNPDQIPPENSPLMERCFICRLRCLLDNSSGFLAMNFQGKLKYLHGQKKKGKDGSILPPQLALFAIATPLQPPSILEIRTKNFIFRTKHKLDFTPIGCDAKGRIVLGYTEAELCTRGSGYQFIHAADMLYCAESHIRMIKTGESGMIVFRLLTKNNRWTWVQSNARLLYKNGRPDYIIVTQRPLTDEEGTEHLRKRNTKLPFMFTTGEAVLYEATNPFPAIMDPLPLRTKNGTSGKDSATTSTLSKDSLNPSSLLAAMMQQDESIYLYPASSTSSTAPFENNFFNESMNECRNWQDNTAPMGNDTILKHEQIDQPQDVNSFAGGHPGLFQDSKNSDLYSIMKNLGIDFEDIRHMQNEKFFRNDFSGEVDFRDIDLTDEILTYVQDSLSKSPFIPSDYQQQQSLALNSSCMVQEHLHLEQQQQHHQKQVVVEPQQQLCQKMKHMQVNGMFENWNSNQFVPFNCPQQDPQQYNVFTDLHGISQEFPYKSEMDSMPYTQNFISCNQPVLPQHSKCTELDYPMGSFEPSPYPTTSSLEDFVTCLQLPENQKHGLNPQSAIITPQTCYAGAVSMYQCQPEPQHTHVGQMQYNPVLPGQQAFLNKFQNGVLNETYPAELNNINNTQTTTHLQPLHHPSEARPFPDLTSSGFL
Nature of the assay: In vitro assay 1: antagonism in human cell line (transactivation assay, U87 cells prestimulated with kynurenic acid, DRE firefly luciferase reporter). As to conditions: 150 uM kynurenic acid, 20 hours, read-out: Assay 1: AHR-luc Hum Antagonism IC50. More on the design: host or cells: U87 glioblastoma cells, stably transfected with DRE firefly luciferase and renilla reporter constructs. An outline of the steps: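 U87 glioblastoma cells with endogenous AHR, stably carrying a DRE-driven firefly luciferase reporter and a constitutive renilla reporter. Cells prestimulated with the AHR agonist kynurenic acid before compound addition; data normalized to positive and negative controls.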
In general terms: A reporter such as luciferase makes a cellular process visible.

In assay [2] the target is T1, AHR. As to the kind of experiment: In vitro assay 3: AHR-regulated CYP1A1 expression in human cell line (U937, qPCR, KA stimulation). As to conditions: U937 cells, 200 uM KA, 6 hours, CYP1A1 expression by qPCR; read-out: Assay 3: Hum CYP1A1 Antagonism IC50. An outline of the steps: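 U937 human monocytic cells were stimulated with 200 uM KA for 6 h, with or without compound at eight concentrations from 1 nM to 3 uM, in duplicate. CYP1A1 mRNA was quantified by Taqman qPCR as fold expression normalised to HPRT. Unstimulated cells served as negative control.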
Background: Real-time PCR tracks product formation cycle by cycle.

The target in assay [3] is T1, AHR. Nature of the assay: In vitro assay 2: agonism in human cell line (transactivation assay, U87 cells, DRE firefly luciferase reporter). The arrangement: host or cells: U87 glioblastoma cells, stably transfected with DRE firefly luciferase and renilla reporter constructs. As to conditions: no kynurenic acid, 20 hours, read-out: Assay 2: AHR-luc Hum Agonism IC50. An outline of the steps:
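U87 glioblastoma cells with endogenous AHR, stably carrying DRE-driven firefly luciferase and constitutive renilla reporters. 300 uM kynurenic acid served as positive activation control; data normalized to positive and negative controls.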

One may read the IC50 as the concentration needed to halve the response being measured.

The structures appear in SMILES notation. Some results are limits rather than exact numbers.

Consider `O=C(N[C@@H]1CCC[C@H]1O)c1cc(-c2ccc(C(F)(F)F)cc2)nn(-c2cccnc2)c1=O` [Example 104, N-[(1R,2R)-2-Hydroxycyclopentyl]-3-oxo-2-(pyridin-3-yl)-6-[4-(trifluoromethyl)phenyl]-2,3-dihydropyridazine-4-carboxamide], for which the concentration for half-maximal inhibition (IC50) in assay [1] is 0.0202 µM; in assay [2] it was 0.0148 µM; in assay [3], over 20 µM.

With `O=C(N[C@H]1COC[C@@H]1O)c1cc(-c2ccc(OC(F)(F)F)cc2)nn(-c2cccnc2)c1=O` (single isomer, unassigned; enantiomer 2) [Example 162, N-[(trans)-4-Hydroxytetrahydrofuran-3-yl]-3-oxo-2-(pyridin-3-yl)-6-[4-(trifluoromethoxy)phenyl]-2,3-dihydropyridazine-4-carboxamide, Enantiomer 2], the IC50 in assay [1] was 0.0273 µM; in assay [2], 0.0373 µM; in assay [3] it was over 20 µM.

In the case of `C[C@@H](CO)NC(=O)c1cc(-c2ccc(Cl)cc2)nn(-c2ccc(F)s2)c1=O` [Example 220, 6-(4-Chlorophenyl)-2-(5-fluoro-2-thienyl)-N-[(2S)-1-hydroxypropan-2-yl]-3-oxo-2,3-dihydropyridazine-4-carboxamide], the figures for the IC50 in assay [1], in assay [2] and in assay [3] were 0.00336 µM, 0.00196 µM and over 20 µM, respectively.

As to `O=C(N[C@H]1COC[C@H]1O)c1cc(-c2ccc(Cl)cc2)nn(-c2cccnc2)c1=O` (single isomer, unassigned) [Example 172, 6-(4-chlorophenyl)-N-[(cis)-4-hydroxytetrahydrofuran-3-yl]-3-oxo-2-(pyridin-3-yl)-2,3-dihydropyridazine-4-carboxamide], the IC50 in assay [1] is 0.0295 µM; in assay [2] it was 0.0234 µM; in assay [3], over 20 µM.

For the compound `Cn1cc(-n2nc(-c3ccc(C(F)(F)F)cc3)cc(C(=O)NC[C@H](O)C(F)(F)F)c2=O)cn1` [Example 37, 2-(1-Methyl-1H-pyrazol-4-yl)-3-oxo-N-[(2S)-3,3,3-trifluoro-2-hydroxypropyl]-6-[4-(trifluoromethyl)phenyl]-2,3-dihydropyridazine-4-carboxamide], the IC50 in assay [1] was 0.00264 µM; in assay [2], 0.000423 µM; in assay [3] it was over 20 µM.

Regarding `C[C@@H](CO)NC(=O)c1cc(-c2ccc(C(F)(F)F)cc2)nn(-c2cnn(C)c2)c1=O` [Example 39, (+)-N-[(2S)-1-Hydroxypropan-2-yl]-2-(1-methyl-1H-pyrazol-4-yl)-3-oxo-6-[4-(trifluoromethyl)phenyl]-2,3-dihydropyridazine-4-carboxamide], the results for the IC50 in assay [1], in assay [2] and in assay [3] were 0.00208 µM, 0.00339 µM and over 20 µM, respectively.

In the case of `Cc1ccc(-c2cc(C(=O)NCC(O)C(F)(F)F)c(=O)n(-c3cnn(C)c3)n2)cc1` (single isomer, unassigned; enantiomer 1) [Example 11, (−)-6-(4-Methylphenyl)-2-(1-methyl-1H-pyrazol-4-yl)-3-oxo-N-(3,3,3-trifluoro-2-hydroxypropyl)-2,3-dihydropyridazine-4-carboxamide, Enantiomer 1], the values for the IC50 in assay [1], in assay [2] and in assay [3] were 0.00455 µM, 0.00015 µM and over 20 µM, respectively.

`Cn1cc(-n2nc(-c3ccc(C(F)(F)F)cc3)cc(C(=O)N[C@@H]3CCC[C@H]3O)c2=O)cn1` [Example 248, N-[(1R,2R)-2-Hydroxycyclo-pentyl]-2-(1-methyl-1H-pyrazol-4-yl)-3-oxo-6-[4-(trifluoromethyl)phenyl]-2,3-dihydropyridazine-4-carboxamide]: the 50% inhibitory concentration (IC50) was 0.0141 µM in assay [1], 0.0313 µM in assay [2] and over 20 µM in assay [3].

With `C[C@@H](CO)NC(=O)c1cc(-c2ccc(C(F)(F)F)cc2)nn(-c2cccnc2)c1=O` [Example 119, N-[(2S)-1-Hydroxypropan-2-yl]-3-oxo-2-(pyridin-3-yl)-6-[4-(trifluoromethyl)phenyl]-2,3-dihydropyridazine-4-carboxamide], the IC50 in assay [1] was 0.00306 µM; in assay [2] it was 0.00572 µM; in assay [3], over 20 µM.

Consider `CC(C)(O)CNC(=O)c1cc(-c2ccc(Cl)cc2)nn(-c2csc(Cl)c2)c1=O` [Example 250, 6-(4-Chlorophenyl)-2-(5-chloro-3-thienyl)-N-(2-hydroxy-2-methylpropyl)-3-oxo-2,3-dihydropyridazine-4-carboxamide], for which the figures for the IC50 in assay [1], in assay [2] and in assay [3] were 0.0169 µM, 0.0105 µM and over 20 µM, respectively.

On to `C[C@@H](CO)NC(=O)c1cc(-c2ccc(OC(F)(F)F)cc2)nn(-c2cccnc2)c1=O` [Example 153, N-[(2S)-1-Hydroxypropan-2-yl]-3-oxo-2-(pyridin-3-yl)-6-[4-(trifluoromethoxy)phenyl]-2,3-dihydropyridazine-4-carboxamide], for which the 50% inhibitory concentration (IC50) in assay [1] was 0.0242 µM; in assay [2], 0.0217 µM; in assay [3], over 20 µM.

In the case of `O=C(NC[C@@H](O)CO)c1cc(-c2ccc(Cl)cc2)nn(-c2cccnc2)c1=O` [Example 73, (+)-6-(4-Chlorophenyl)-N-[(2R)-2,3-dihydroxypropyl]-3-oxo-2-(pyridin-3-yl)-2,3-dihydropyridazine-4-carboxamide], the IC50 is 0.283 µM in assay [1], 0.355 µM in assay [2] and over 20 µM in assay [3].

Consider `O=C(NC(CO)C1CC1)c1cc(-c2ccc(Cl)cc2)nn(-c2cccnc2)c1=O` (single isomer, unassigned; (-)) [Example 92, (−)-6-(4-Chlorophenyl)-N-(1-cyclopropyl-2-hydroxyethyl)-3-oxo-2-(pyridin-3-yl)-2,3-dihydropyridazine-4-carboxamide], for which the IC50 in assay [1] was 0.019 µM; in assay [2], 0.00276 µM; in assay [3], over 20 µM.

Regarding `Cn1cc(-n2nc(-c3ccc(OC(F)(F)F)cc3)cc(C(=O)N[C@H]3CCCC[C@H]3O)c2=O)cn1` [Example 46, N-[(1S,2R)-2-Hydroxycyclohexyl]-2-(1-methyl-1H-pyrazol-4-yl)-3-oxo-6-[4-(trifluoromethoxy)phenyl]-2,3-dihydropyridazine-4-carboxamide], the IC50 in assay [1] was 0.00148 µM; in assay [2], 0.00136 µM; in assay [3], over 20 µM.

Turning to `O=C(NC[C@H](O)C(F)F)c1cc(-c2ccc(OC(F)(F)F)cc2)nn(-c2cccnc2)c1=O` [Example 295, N-[(2S)-3,3-Difluoro-2-hydroxypropyl]-3-oxo-2-(pyridin-3-yl)-6-[4-(trifluoromethoxy)phenyl]-2,3-dihydropyridazine-4-carboxamide], the results for the IC50 in assay [1], in assay [2] and in assay [3] were 0.0319 µM, 0.0899 µM and over 20 µM, respectively.

Turning to `CC(C)(O)CNC(=O)c1cc(-c2ccc(Cl)cc2)nn(-c2cccnc2)c1=O` [Example 71, 6-(4-Chlorophenyl)-N-(2-hydroxy-2-methylpropyl)-3-oxo-2-(pyridin-3-yl)-2,3-dihydropyridazine-4-carboxamide], the IC50 in assay [1] is 0.038 µM; in assay [2] it was 0.0607 µM; in assay [3], over 20 µM.

With `O=C(N[C@H](CO)CF)c1cc(-c2ccc(Cl)cc2)nn(-c2cccnc2)c1=O` [Example 93, (+)-6-(4-Chlorophenyl)-N-[(2R)-1-fluoro-3-hydroxypropan-2-yl]-3-oxo-2-(pyridin-3-yl)-2,3-dihydropyridazine-4-carboxamide], the IC50 in assay [1] is 0.0248 µM; in assay [2], 0.00432 µM; in assay [3] it was over 20 µM.

The values above are taken from patent publication US12522594B2, “2-heteroaryl-3-oxo-2,3-dihydropyridazine-4-carboxamides for the treatment of cancer” (Deutsches Krebsforschungszentrum, priority 2017, dated 2026).
